Assays:
B-RAF V600E = biological target: T1, B-RAF V600E (Homo sapiens, UniProt P15056, V600E); assay: Target protein degradation, assay A: T-Rex 293 cells, HA-B-RAF_V600E, 96 well format; assay type: cell-based; conditions: T-Rex 293 HA-B-RAF_V600E cells, 24 hours, Examples 1-82
T1 construct: expressed in transfected cells; host or cells: T-Rex 293 cells (Invitrogen #R71007)
Experimental: A. T-Rex 293 Cells (96 well format)
T-Rex 293 cells were purchased from Invitrogen (#R71007), and stably transfected with a pcDNA4/TO_HA-B-RAF_V600E construct, using 400 ug Zeocin for selection. V600e cells are plated in ulbecco's Modified Eagle Medium (DMEM; Gibco #11965118) containing 10% fetal bovine serum (FBS; Gibco #16000044) and 1 ng/mL doxycycline (Selleckchem #4163) at a density of 5,000 cells/well in 50 μl on poly-D-lysine (PDL) coated, black clear bottom 96-well plates (Corning #354640) and incubated for 24 hours at 37° C. with 5% CO2. The following day 50 ul of tested compound was added at 2× concentration in DMEM with a final concentration ranging from 1 μM to 0.1 nM in 0.1% dimethylsulfoxide (DMSO), and incubated for 24 hours at 37° C. with 5% CO2. At the end of the experimental treatment, the media was flicked off and cells washed once with phosphate-buffered saline (PBS)++(PBS with CaCl and MgCl) and gently replacing with 200 μl PBS++ per well. The PBS++ was removed and 50 uL 4% paraformaldehyde (PFA; EMS #15710) in PBS++ was added, and incubate at room temperature for 15 minutes. Cells were washed once with PBS++ and 50 uL 0.1% Triton X-100 (Fisher #BP151-500) in PBS++ was added. Plate was incubate for 5 minutes at room temperature. Cells were was once with PBS++. Cells were blocked with 100 uL Licor blocking buffer (Licor #927-50000) for 1 hour at room temperature. Next, 50 uL of HA antibody (CST #3724) at 1:1000 in Licor blocking buffer was added, and the plate icubate overnight at 4° C. The plates were parafilmed to prevent evaporation. Plate was washed three times with 200 uL PBS++. Fifty microliters of HCS secondary antibody solution [1:1000 Hoechst (Invitrogen #H3570), 1:1000 phalloidin (Invitrogen #A22287) and 1:5000 Alexa fluor (Invitrogen #A11008)] was added and incubated for 1 hour. Plate was wash three times with 200 uL PBS++, and imaged on a high content reader (ImageXpress Micro XLS, Molecular Devices).
(§1) The concentration of an exemplary compound that leads to half maximal degradation (DC50) as well as the maximum degradation observed (Dmax, conventionally expressed as a percentage of control) is shown below in Table 2.

B-RAF G466V = biological target: T2, B-RAF G466V (Homo sapiens, UniProt P15056, G466V); assay: Target protein degradation, assay B: T-Rex 293 cells, HA-B-RAF_G466V, 96 well format; assay type: cell-based; conditions: T-Rex 293 HA-B-RAF_G466V cells, 24 hours, Examples 1-82
T2 construct: expressed in transfected cells; host or cells: T-Rex 293 cells (Invitrogen #R71007)
T2 sequence (P15056 whole entry G466V): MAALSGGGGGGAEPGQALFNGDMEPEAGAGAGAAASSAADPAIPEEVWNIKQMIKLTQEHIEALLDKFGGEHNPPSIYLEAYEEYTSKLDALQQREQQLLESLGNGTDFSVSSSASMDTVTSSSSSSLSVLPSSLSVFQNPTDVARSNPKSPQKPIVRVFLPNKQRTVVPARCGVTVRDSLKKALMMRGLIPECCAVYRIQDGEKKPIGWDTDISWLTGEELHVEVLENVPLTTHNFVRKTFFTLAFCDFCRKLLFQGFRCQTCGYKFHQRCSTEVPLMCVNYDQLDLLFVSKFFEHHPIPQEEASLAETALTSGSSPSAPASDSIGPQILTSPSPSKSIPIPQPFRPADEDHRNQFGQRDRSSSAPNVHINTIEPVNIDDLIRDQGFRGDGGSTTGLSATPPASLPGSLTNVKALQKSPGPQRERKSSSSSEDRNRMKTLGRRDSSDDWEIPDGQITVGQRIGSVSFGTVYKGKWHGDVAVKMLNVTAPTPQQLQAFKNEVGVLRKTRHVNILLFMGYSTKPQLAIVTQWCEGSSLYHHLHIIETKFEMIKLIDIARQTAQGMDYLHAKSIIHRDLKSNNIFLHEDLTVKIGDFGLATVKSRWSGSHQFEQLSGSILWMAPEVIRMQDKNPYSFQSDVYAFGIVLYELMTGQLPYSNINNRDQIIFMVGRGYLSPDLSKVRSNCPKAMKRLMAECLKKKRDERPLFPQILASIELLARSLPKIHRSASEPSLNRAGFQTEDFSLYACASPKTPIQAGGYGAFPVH
Experimental: B. T-Rex 293 Cells (96 Well Format)
T-Rex 293 cells were purchased from Invitrogen (#R71007), and stably transfected with a pcDNA4/TO_HA-B-RAF_G466V construct, using 400 ug Zeocin for selection. G466V cells are plated in ulbecco's Modified Eagle Medium (DMEM; Gibco #11965118) containing 10% fetal bovine serum (FBS; Gibco #16000044) and 0.75 ng/mL doxycycline (Selleckchem #4163) at a density of 5,000 cells/well in 50 μl on poly-D-lysine (PDL) coated, black clear bottom 96-well plates (Corning #354640) and incubated for 24 hours at 37° C. with 5% CO2. The following day 50 ul of tested compound was added at 2× concentration in DMEM with a final concentration ranging from 30 nM to 3 pM in 0.1% dimethylsulfoxide (DMSO), and incubated for 24 hours at 37° C. with 5% CO2. At the end of the experimental treatment, the media was flicked off and cells washed once with phosphate-buffered saline (PBS)++(PBS with CaCl and MgCl) and gently replacing with 200 μl PBS++ per well. The PBS++ was removed and 50 uL 4% paraformaldehyde (PFA; EMS #15710) in PBS++ was added, and incubate at room temperature for 15 minutes. Cells were washed once with PBS++ and 50 uL 0.1% Triton X-100 (Fisher #BP151-500) in PBS++ was added. Plate was incubate for 5 minutes at room temperature. Cells were was once with PBS++. Cells were blocked with 100 uL Licor blocking buffer (Licor #927-50000) for 1 hour at room temperature. Next, 50 uL of HA antibody (CST #3724) at 1:1000 in Licor blocking buffer was added, and the plate icubate overnight at 4° C. The plates were parafilmed to prevent evaporation. Plate was washed three times with 200 uL PBS++. Fifty microliters of HCS secondary antibody solution [1:1000 Hoechst (Invitrogen #H3570), 1:1000 phalloidin (Invitrogen #A22287) and 1:5000 Alexa fluor (Invitrogen #A11008)] was added and incubated for 1 hour. Plate was wash three times with 200 uL PBS++, and imaged on a high content reader (ImageXpress Micro XLS, Molecular Devices).
as §1

T1 sequence (P15056 whole entry V600E): as the sequence (P15056 whole entry G466V) above, with V466G, V600E counted along it

N#Cc1c(NS(=O)(=O)N2CC[C@@H](F)C2)ccc(F)c1Oc1ccc2ncn(-c3ccc(N4CCN(C(=O)CC5(O)CCN(c6ccc7c(c6)CN([C@H]6CCC(=O)NC6=O)C7=O)CC5)CC4)nc3)c(=O)c2c1 [Example 65, (3R)-N-(2-cyano-3-{[3-(6-{4-[2-(1-{2-[(3S)-2,6-dioxopiperidin-3-yl]-1-oxo-2,3-dihydro-1H-isoindol-5-yl}-4-hydroxypiperidin-4-yl)acetyl]piperazin-1-yl}pyridin-3-yl)-4-oxo-3,4-dihydroquinazolin-6-yl]oxy}-4-fluorophenyl)-3-fluoropyrrolidine-1-sulfonamide]
DC50 (B-RAF V600E): > 500 nM
DC50 (B-RAF G466V): 10 to 30 nM
Dmax (B-RAF G466V): 35 to 70%

N#Cc1c(NS(=O)(=O)N2CC[C@@H](F)C2)ccc(F)c1Oc1ccc2ncn(-c3ccn(C4CCN(CC5CCN(c6ccc7c(c6)CN(C6CCC(=O)NC6=O)C7=O)CC5)CC4)n3)c(=O)c2c1 (stereo partly drawn) [Example 75, (3R)—N-{2-cyano-3-[(3-{1-[1-({1-[2-(2,6-dioxopiperidin-3-yl)-1-oxo-2,3-dihydro-1H-isoindol-5-yl]piperidin-4-yl}methyl)piperidin-4-yl]-1H-pyrazol-3-yl}-4-oxo-3,4-dihydroquinazolin-6-yl)oxy]-4-fluorophenyl}-3-fluoropyrrolidine-1-sulfonamide]
DC50 (B-RAF V600E): 50 to 500 nM
Dmax (B-RAF V600E): 35 to 70%
DC50 (B-RAF G466V): 1 to 10 nM
Dmax (B-RAF G466V): ≤ 35%

N#Cc1c(NS(=O)(=O)N2CC[C@@H](F)C2)ccc(F)c1Oc1ccc2ncn(-c3ccc(N4CCN(CC5CN(c6ccc7c(c6)CN(C6CCC(=O)NC6=O)C7=O)C5)CC4)nc3)c(=O)c2c1 (stereo partly drawn) [Example 8, (3R)-N-{2-cyano-3-[(3-{6-[4-({1-[2-(2,6-dioxopiperidin-3-yl)-1-oxo-2,3-dihydro-1H-isoindol-5-yl]azetidin-3-yl}methyl)piperazin-1-yl]pyridin-3-yl}-4-oxo-3,4-dihydroquinazolin-6-yl)oxy]-4-fluorophenyl}-3-fluoropyrrolidine-1-sulfonamide]
DC50 (B-RAF V600E): 50 to 500 nM
Dmax (B-RAF V600E): 35 to 70%
DC50 (B-RAF G466V): 1 to 10 nM
Dmax (B-RAF G466V): ≤ 35%

N#Cc1c(NS(=O)(=O)N2CC[C@@H](F)C2)ccc(F)c1Oc1ccc2ncn(-c3cnc(N4CCN(CC5CN(c6ccc7c(c6)CN(C6CCC(=O)NC6=O)C7=O)C5)CC4)nc3)c(=O)c2c1 (stereo partly drawn) [Example 9, (3R)-N-{2-cyano-3-[(3-{2-[4-({1-[2-(2,6-dioxopiperidin-3-yl)-1-oxo-2,3-dihydro-1H-isoindol-5-yl]azetidin-3-yl}methyl)piperazin-1-yl]pyrimidin-5-yl}-4-oxo-3,4-dihydroquinazolin-6-yl)oxy]-4-fluorophenyl}-3-fluoropyrrolidine-1-sulfonamide]
DC50 (B-RAF V600E): 50 to 500 nM
Dmax (B-RAF V600E): 35 to 70%
DC50 (B-RAF G466V): > 30 nM

N#Cc1c(NS(=O)(=O)N2CC[C@@H](F)C2)ccc(F)c1Oc1ccc2ncn(-c3ccc(N4CCN(CC5CCN(c6ccc7c(c6)CN([C@H]6CCC(=O)NC6=O)C7=O)CC5)CC4)cc3)c(=O)c2c1 [Example 77, (3R)—N-(2-cyano-3-{[3-(4-{4-[(1-{2-[(3S)-2,6-dioxopiperidin-3-yl]-1-oxo-2,3-dihydro-1H-isoindol-5-yl}piperidin-4-yl)methyl]piperazin-1-yl}phenyl)-4-oxo-3,4-dihydroquinazolin-6-yl]oxy}-4-fluorophenyl)-3-fluoropyrrolidine-1-sulfonamide]
DC50 (B-RAF V600E): 50 to 500 nM
Dmax (B-RAF V600E): 35 to 70%
DC50 (B-RAF G466V): 1 to 10 nM
Dmax (B-RAF G466V): 35 to 70%

N#Cc1c(NS(=O)(=O)N2CC[C@@H](F)C2)ccc(F)c1Oc1ccc2ncn(-c3ccc(N4CCN(CC5CCN(c6ccc7c(c6)CN(C6CCC(=O)NC6=O)C7=O)CC5)CC4)cc3)c(=O)c2c1 (stereo partly drawn) [Example 1, (3R)—N-[2-cyano-3-[3-[4-[4-[[1-[2-(2,6-dioxo-3-piperidyl)-1-oxo-isoindolin-5-yl]-4-piperidyl]methyl]piperazin-1-yl]phenyl]-4-oxo-quinazolin-6-yl]oxy-4-fluoro-phenyl]-3-fluoro-pyrrolidine-1-sulfonamide]
DC50 (B-RAF V600E): 5 to 50 nM
Dmax (B-RAF V600E): 35 to 70%
DC50 (B-RAF G466V): ≤ 1 nM
Dmax (B-RAF G466V): 35 to 70%

N#Cc1c(NS(=O)(=O)N2CC[C@@H](F)C2)ccc(F)c1Oc1ccc2ncn(-c3ccc(N4CCN(CC5CCN(c6ccc7c(c6)CN(C6CCC(=O)NC6=O)C7=O)CC5)CC4)nc3)c(=O)c2c1 (stereo partly drawn) [Example 3, (3R)—N-[2-cyano-3-[3-[6-[4-[[1-[2-(2,6-dioxo-3-piperidyl)-1-oxo-isoindolin-5-yl]-4-piperidyl]methyl]piperazin-1-yl]-3-pyridyl]-4-oxo-quinazolin-6-yl]oxy-4-fluoro-phenyl]-3-fluoro-pyrrolidine-1-sulfonamide]
DC50 (B-RAF V600E): 50 to 500 nM
Dmax (B-RAF V600E): ≤ 35%
DC50 (B-RAF G466V): 1 to 10 nM
Dmax (B-RAF G466V): 35 to 70%

N#Cc1c(NS(=O)(=O)N2CC[C@@H](F)C2)ccc(F)c1Oc1ccc2ncn(-c3ccc(N4CCN(C(=O)CC5(O)CCN(c6ccc(NC7CCC(=O)NC7=O)cc6F)CC5)CC4)cc3)c(=O)c2c1 (stereo partly drawn) [Example 67, (3R)-N-{2-cyano-3-[(3-(4-{4-[2-(1-{4-[(2,6-dioxopiperidin-3-yl)amino]-2-fluorophenyl}-4-hydroxypiperidin-4-yl)acetyl]piperazin-1-yl}phenyl)-4-oxo-3,4-dihydroquinazolin-6-yl]oxy}-4-fluorophenyl)-3-fluoropyrrolidine-1-sulfonamide]
DC50 (B-RAF V600E): 50 to 500 nM
Dmax (B-RAF V600E): 35 to 70%
DC50 (B-RAF G466V): > 30 nM

N#Cc1c(NS(=O)(=O)N2CC[C@@H](F)C2)ccc(F)c1Oc1ccc2ncn(-c3ccc(N4CCN(CC5CN(c6ccc7c(c6)CN(C6CCC(=O)NC6=O)C7=O)C5)CC4)cc3)c(=O)c2c1 (stereo partly drawn) [Example 2, (3R)—N-{2-cyano-3-[(3-{4-[4-({1-[2-(2,6-dioxopiperidin-3-yl)-1-oxo-2,3-dihydro-1H-isoindol-5-yl]azetidin-3-yl}methyl)piperazin-1-yl]phenyl}-4-oxo-3,4-dihydroquinazolin-6-yl)oxy]-4-fluorophenyl}-3-fluoropyrrolidine-1-sulfonamide]
DC50 (B-RAF V600E): 50 to 500 nM
Dmax (B-RAF V600E): ≤ 35%
DC50 (B-RAF G466V): ≤ 1 nM
Dmax (B-RAF G466V): 35 to 70%

N#Cc1c(NS(=O)(=O)N2CC[C@@H](F)C2)ccc(F)c1Oc1ccc2ncn(-c3ccc(N4CCN(C(=O)CC5(O)CCN(c6ccc(NC7CCC(=O)NC7=O)cc6F)CC5)CC4)nc3)c(=O)c2c1 (stereo partly drawn) [Example 70, (3R)-N-(2-cyano-3-{[3-(6-{4-[2-(1-{4-[(2,6-dioxopiperidin-3-yl)amino]-2-fluorophenyl}-4-hydroxypiperidin-4-yl)acetyl]piperazin-1-yl}pyridin-3-yl)-4-oxo-3,4-dihydroquinazolin-6-yl]oxy}-4-fluorophenyl)-3-fluoropyrrolidine-1-sulfonamide]
DC50 (B-RAF V600E): 50 to 500 nM
Dmax (B-RAF V600E): 35 to 70%
DC50 (B-RAF G466V): 1 to 10 nM
Dmax (B-RAF G466V): ≤ 35%

— patent publication US11957759B1, “Rapidly accelerated fibrosarcoma (RAF) degrading compounds and associated methods of use” (Arvinas Operations, Inc., priority 2022, dated 2024)
